Measured values as given in patent US11504381B1 (priority 2021, dated 2022).

Experiments:
recombinant MDM2 protein [1] = target: T1, recombinant MDM2 protein (Homo sapiens (Human), UniProt Q00987); conditions: competitive binding vs fluorescently labeled peptide probe, 10% DMSO, pH 7.2; read-out: Fluorescence Polarization Assay KI
Method: The compounds binding to MDM2 were determined by a quantitative fluorescence polarization binding assay using a recombinant MDM2 protein and fluorescently labeled peptide probes using a BioTek Cytation 5 machine. Compounds were tested in 10% DMSO, 100 mM potassium phosphate pH 7.2, 100 ug/ml bovine γ-globulin, 0.02% (w/v) sodium azide and 0.01% (v/v) triton X-100. KI values of tested compounds were determined in a dose-dependent competitive binding experiment by fitting the sigmoidal dose-dependent FP increases as a function of […] concentrations using Graphpad Prism software.

recombinant MDM2 protein [2] = target: T1, recombinant MDM2 protein; assay: biochemical; format: binding
Method: Qualitative evaluation of compound binding to MDM2 was determined using a fluorescence-based thermal shift assay with a Roche LC480 lightcycler. Each experiment was performed in ˜30 mins with ramping up of temperature to monitor thermal denaturation of MDM2. Compounds at 0.16 mM, 0.08 mM and 0.04 mM were added to recombinant MDM2 protein and SYPRO orange dye in 5% DMSO 50 mM Bis-Tris Propane pH 8.0 and 100 mM NaCl. Positive thermal shift was indicative of compound binding to the proteins of interest.

T1 sequence (Q00987 whole entry): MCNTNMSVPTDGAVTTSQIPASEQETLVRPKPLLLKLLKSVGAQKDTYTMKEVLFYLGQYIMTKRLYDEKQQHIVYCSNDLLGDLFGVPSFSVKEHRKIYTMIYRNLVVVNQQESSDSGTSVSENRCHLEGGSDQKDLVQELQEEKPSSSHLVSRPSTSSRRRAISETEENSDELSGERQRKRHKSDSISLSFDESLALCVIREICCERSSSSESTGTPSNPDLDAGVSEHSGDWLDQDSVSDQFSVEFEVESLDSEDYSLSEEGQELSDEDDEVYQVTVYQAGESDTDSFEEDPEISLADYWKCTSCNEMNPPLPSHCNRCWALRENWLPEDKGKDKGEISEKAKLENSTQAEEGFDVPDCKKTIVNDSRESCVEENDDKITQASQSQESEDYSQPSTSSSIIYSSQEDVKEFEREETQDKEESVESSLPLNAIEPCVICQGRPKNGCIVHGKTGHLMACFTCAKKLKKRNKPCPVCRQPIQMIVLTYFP

Ki (recombinant MDM2 protein [1]): 118 µM
ΔTm at 40 µM (recombinant MDM2 protein [2]; read-out: Thermal Shift 0.04 mM): 0 °C
ΔTm at 80 µM (recombinant MDM2 protein [2]; read-out: Thermal Shift 0.08 mM): 0 °C
ΔTm at 160 µM (recombinant MDM2 protein [2]; read-out: Thermal Shift 0.16 mM): 0.6 °C
Compound: CC(=O)Nc1cc(C(F)(F)F)cnc1N1CCN(CC(=O)O)CC1c1ccc(Cl)cc1 (stereo not shown) [Compound 2, 2-(4-(3-acetamido-5-(trifluoromethyl)pyridin-2-yl)-3-(4-chlorophenyl)piperazin-1-yl)acetic acid]
